We go through 2 molecules from patent US20250073234A1, “COMBINATION THERAPIES INCLUDING PARP1 INHIBITORS” (Cornell University, priority 2022, published 2025).

Entries after “also recorded” stand apart in the source; their conditions may differ. Read-outs that look alike come from different tables or passages of the source.

For experiment [1], the system named is PARP-1. Description: Poly(ADP-ribosyl)ation in WPMY-1 cells (immunoblot, immunoprecipitation). Type of experiment: cell-based, human. Conditions: added to lactate-treated cells, 48 h. On the procedure: (§1) Cells for protein analysis were lysed in RIPA buffer (20 mM Tris-HCl, […], 2 mM EDTA, 1% Triton-X, 10% glycerol, 0.1% SDS, and 0.5% sodium deoxycholate) with phosphatase and protease inhibitors. For immunoprecipitations, cells were lysed in IP lysis buffer (100 mM NaCl, 25 mM Tris, 1% Triton-X, 10% glycerol, with phosphatase and protease inhibitors) and immunoprecipitated with 25 μl of 50% slurry of protein […] beads (Bioworld). Immunoprecipitates were washed three times with lysis buffer, once with high salt (500 mM NaCl), and once more with lysis buffer. Protein concentration in lysates was determined by using Protein Assay Kit (Bio-Rad). Cell extracts and immunoprecipitated proteins were denatured, subjected to SDS-PAGE, transferred to PVDF membranes (GE Healthcare). After blocking with 5% nonfat dry milk in Tris-buffered saline and 0.1% Tween (TBS-T), the membranes were incubated with the specific antibodies (as listed in Key Resources Table) overnight at 4° C. After 2 hours incubation with the appropriate horseradish peroxidase-conjugated antibodies, the immune complexes were detected by chemiluminescence (Thermo Scientific) or Near-infrared fluorescence (LI-COR).
(A western blot detects proteins with antibodies after separation by electrophoresis.)

The subject of experiment [2] is prostate cancer bone metastasis. Description: Paired biopsies of bone metastasis from a mCRPC patient, IHC for HA. Format: in vivo, human.
Experiment [3] relates to WPMY-1 cells. Description: Autophagy activation by LC3 lipidation in WPMY-1 cells. Format: cell-based, human. Conditions: with lysosomal inhibitors. An excerpt: To knock out PARP-1 in WPMY-1 cells, single-guide RNA sequences targeting PARP-1 exon2 were purchased from Synthego and transduced into WPMY-1 cells with recombinant Streptococcus pyogenes Cas9 protein (Truecut Cas9 Protein v2, Thermo), using the Neon Transfection System 1 (Invitrogen) following the manufacturer's protocol and single clones were expanded and screened by protein immunoblotting. To perform AP1-A binding site editing in the SQSTM promoter in WPMY-1 cells, single-guide RNA sequences targeting the human AP1-A binding site (Synthego) was transduced into cells with a Cas9 protein and a single-stranded donor oligonucleotide (ssODN, IDT) using Neon Electroporation System. Single clones were expanded and screened for AP1-A editing by Sanger sequencing. A point mutation to disrupt the API enhancer element in the p62 promoter was introduced by Site Directed Mutagenesis (Stratagene). Knockdown of MCT1, MCT4, FOS, PARP1, PARP2, CD38, ATG5, and SIRT1-7 genes in WPMY-1 cells were achieved by siRNA transfection using Lipofectamine RNAiMAX Transfection Reagent (Invitrogen). […]
Cells for protein analysis were lysed in RIPA buffer (20 mM Tris-HCl, […], 2 mM EDTA, 1% Triton-X, 10% glycerol, 0.1% SDS, and 0.5% sodium deoxycholate) with phosphatase and protease inhibitors. […] Protein concentration in lysates was determined by using Protein Assay Kit (Bio-Rad). […]

For experiment [4], the system named is bone marrow stromal cells. Description: qPCR in mouse bone marrow stromal cells. Format: cell-based. As to the method: Total RNA from mouse tissues, cells and cultured organoids was extracted using the TRIZOL reagent (Invitrogen) and the RNeasy Mini Kit (QIAGEN), followed by DNase treatment. After quantification using a Nanodrop 1000 spectrophotometer (Thermo Scientific), RNA was either processed for RNA-seq or reverse-transcribed using random primers and MultiScribe Reverse Transcriptase (Applied Biosystems). Gene expression was analyzed by amplifying 20 ng of the complementary DNA using the CFX96 Real Time PCR Detection System with SYBR Green Master Mix (BioRad) and primers described in Table S1. The amplification parameters were set at 95° C. for 30 seconds, 58° C. for 30 seconds, and 72° C. for 30 seconds (40 cycles total). Gene expression values for each sample were normalized to the 18s RNA.
In general terms: Real-time PCR tracks product formation cycle by cycle.

The subject of experiment [5] is p62 in prostate, lung, breast and endometrial primary fibroblasts. Description: p62 immunoblot in primary fibroblasts of different tissue origins. Format: cell-based. Conditions: Olaparib 20 μM, 4 days. On the procedure: as §1

Consider `NC(=O)c1ccc[n+]([C@@H]2O[C@H](COP(=O)([O-])OP(=O)(O)OC[C@H]3O[C@@H](n4cnc5c(N)ncnc54)[C@H](O)[C@@H]3O)[C@@H](O)[C@H]2O)c1` [NAD^+], for which the “poly(ADP-ribosyl)ation of c-JUN and c-FOS in lactate-treated cells” value in experiment [1] is “rescued the poly(ADP-ribosyl) ation of both transcription factors”.
Consider `O=C(c1cc(Cc2n[nH]c(=O)c3ccccc23)ccc1F)N1CCN(C(=O)C2CC2)CC1` [Olaparib], for which the “HA deposition in bone metastasis, pre- vs post-treatment” value in experiment [2] is “increased HA deposition”; in experiment [2] (listed as Ola) it was “robust increase in HA deposition”. Further, the “autophagy activation (LC3 lipidation)” value in experiment [3] was “induced autophagy activation; also recorded: induces autophagy”. Moreover, the “markers of stromal activation (Acta2, Has2)” value in experiment [4] (cells isolated from in vivo treated mice, 40 mg/kg) was “enhanced expression of markers of stromal activation”. In addition, the “markers of TGFβ family (Tgfb3, Tgfb2) and Has3” value in experiment [4] (in vitro, Olaparib 10 μM, 96 h) is on record as “increased expression of markers of TGFβ family”. In addition, the p62 expression result in experiment [5] is reported as “downregulated p62 expression”.
